Test results taken from patent US12649734B2, “Bioavailable protein disulfide isomerase inhibitors” (THE CLEVELAND CLINIC FOUNDATION, priority 2020, dated 2026).

What was measured:
[1] = Stability in acidic conditions (6 N HCl); type: physicochemical; settings: 3 h
Method: To evaluate pharmacological properties of CCF642-34, the stability in acidic conditions (6 N HCl) and upon exposure to human liver microsomes was tested. […] It was therefore concluded that CCF642-34 may be orally bioavailable and effective against MM in vivo.

PDIA1 = PDIA1 (Homo sapiens, UniProt P07237); test: PDIA1 activity assay, di-E-GSSG reduction (fluorescence); type: biochemical; design: His6 (6xHN, pET6xHN-N vector) (N); made in house; host or cells: Escherichia coli BL21 (DE3) NiCo; settings: di-EGGS assay; read-out: inactivation constant, Kinact for PDIA1
Chain of PDIA1 (P07237 18-508): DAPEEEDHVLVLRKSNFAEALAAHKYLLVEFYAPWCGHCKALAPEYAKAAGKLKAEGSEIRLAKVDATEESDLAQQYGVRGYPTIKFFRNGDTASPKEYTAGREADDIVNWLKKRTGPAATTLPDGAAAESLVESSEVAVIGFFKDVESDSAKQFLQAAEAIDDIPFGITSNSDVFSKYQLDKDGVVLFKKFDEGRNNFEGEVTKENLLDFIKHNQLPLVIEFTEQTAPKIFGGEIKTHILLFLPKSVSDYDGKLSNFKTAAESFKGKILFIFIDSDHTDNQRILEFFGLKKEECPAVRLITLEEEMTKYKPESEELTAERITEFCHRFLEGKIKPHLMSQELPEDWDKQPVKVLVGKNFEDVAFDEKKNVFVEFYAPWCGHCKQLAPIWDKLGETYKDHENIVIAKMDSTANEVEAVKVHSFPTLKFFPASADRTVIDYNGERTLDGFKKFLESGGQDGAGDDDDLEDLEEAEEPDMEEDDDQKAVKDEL
Method: PDI activity: All PDI activity assays were performed using two different substrates, insulin and di-eosin-diglutathione (di-E-GSSG) as described earlier (Vatolin et al., Ibid) with brief modifications. PDIA1 (1 μM) was incubated for 1 h with varying concentrations of PDIA1 inhibitors 642 or 642-34 (0.1, 03, 1, 5, 10, or 20 μM) in 100 mM sodium phosphate pH 7.0, 2 mM EDTA, and 1% DMSO. Bovine insulin (100 μM) and DTT (1 mM) were added to initiate the reaction. Kinetic readings were taken every minute for 2 h at 650 nm absorbance using a BioTek Synergy plate reader (BioTek Instruments, Inc., Winooski, VT, USA). For highly sensitive fluorescence-based assays, di-E-GSSG as a pseudo substrate was utilized to access the activity of PDIA1. Raturi, A.; Mutus, B., Free. Radic. Biol. Med., 43, 62-70 (2007) Known concentrations of recombinant PDIA1 were mixed with 10 mM GSH and incubated at 37° C. for 30 min in 150 mM K2HPO4/KH2PO4 (pH 7.1) buffer solution. PDI inhibitor was added into the mixture and incubated for an additional 30 min at 37° C. […] Synergy H1 plate reader (BioTek, WI, USA) was used for kinetic analysis using excitation at 518 nm, emission at 545 nm, reads of 0.1 sec/well every minute at 25° C. for 1 h. Baseline fluorescence was determined from di-E-GSSG reactions without PDI and GSH. […]

[2] = tested on: myeloma cells (MM1.S, MM1.S.LUC, BTZ-resistant MM1.S.LUC); test: ROS detection (carboxy-H2DCFDA); type: cell-based, human; settings: 2.5 μM, peaking between 2-3 h
Method: ROS detection: MM1.S, MM1.S.LUC, and BTZ-resistant MM1.S.LUC cells were washed with DPBS and treated with 5 μM carboxy-H2DCFDA (Molecular Probes) for 45 min at 37° C. The cells were then washed 3 times in DPBS and followed by 2.5 μM CCF642-34 treatment up to 4 h. After the incubation, the cells were washed 3 times and the intracellular ROS was quantified (excitation=493 nm; […]) using a BioTek Synergy plate reader (BioTek Instruments, Inc., Winooski, VT, USA).

[3] = tested on: RPMI-8226 cells vs CD34+ HSPCs derived from healthy bone marrow; test: In vitro colony-forming assay, myeloma cells versus normal bone marrow CD34+ cells; type: cell-based, human; settings: colonies scored on day 14
Method: In vitro colony-forming assays: Mononuclear cells derived from bone marrow or purified CD34+ cells from a healthy donor, cord blood, or MM cell RPMI-8226 were grown in semi-solid methylcellulose media (MethoCult™, H4435; STEMCELL Technologies) in the presence of indicated compounds and concentrations. A total of 10,000/mL normal bone marrow CD34+ cells and 1000/mL RPMI-8226 cells were plat-ed, and colonies were scored on day 14.

MM1.S-luc = test: Chou and Talalay drug combination test with BTZ; type: cell-based, human; settings: combined with BTZ; lower dose range affecting 70% of myeloma cells or less
Method: Cell vi-ability and LD50 for inhibitors were measured in 96 well culture plates (2×10^4 cells/well) after 72 h of treatment using CellTiter-Glo® Luminescent Cell Viability Assay (Promega, Madison, WI, USA). (A) Cell survival assay with MM1.S.luc and BTZ-resistant MM1.S.luc cells. […] (C) Comparison of PDIA1 protein levels in MM1.S.luc and MM1.S.luc BTZ-resistant cells. Band intensity was calculated with Image Lab Version 5.2.1. (D) Cell survival assay with 5TGM1.luc and (E) BTZ-resistant 5TGM1.luc cells. (F) MM1.S cell line was exposed to CCF642-34, and BTZ for 72 h for synergistic drug combination test according to Chou and Talalay method. If the […] remained less than 1, the two drugs were determined as synergistic. […] The number of colony-forming units were plotted for each treatment.

## NC(CC1CNc2ccccc21)C(=O)NCCCOc1ccc(N2C(=O)/C(=C/c3ccc([N+](=O)[O-])s3)SC2=S)cc1 (centres unmarked) [CCF642-34]
[1]
  compound recovered after exposure to acid: greater than 80%
PDIA1
  KI (inactivation): 88 ± 2.8 nM
[2]
  increase of reactive oxygen species (ROS): 4-6 fold
[3]
  potency in restricting colony formation of RPMI-8226 compared to CD34+ HSPCs: 20 fold
MM1.S-luc
  combination index (CI): below 1
